The text below walks through data of ChEMBL document CHEMBL1201862, “PubChem BioAssay data set” (2004).

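Briefly, cells in 96-well plates were exposed to five compound concentrations for 48 h, and endpoints were estimated by linear interpolation. Here, GI50 denotes the concentration required for 50% inhibition of growth.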 Activity calls are given as the source filed them. Cut-off read from the data, not from the text of the source: active = GI50 up to about 1.1 µM and inactive = higher. Non-standard residues stand in square brackets, D forms with d. Residues, ends and D or L forms follow the SMILES beside them. ξ: configuration not given here. *: point of attachment. Cbz = O=C(OCc1ccccc1)*; ξK = NCCCCC(N)C(=O)O

Some test systems named below: 786-0; CAKI-1; COLO 205; EKVX; HCC 2998; HL-60; K562; MDA-MB-435; MDA-N; MOLT-4; NCI-H226; NCI-H23; PC-3; RXF 393; SK-MEL-5; SK-OV-3; SW-620; TK-10; U-251; LOX IMVI.
Assay in all cases: growth of human tumour cells (NCI), 48 h

For the compound `CC(=O)Nc1c(S(=O)(=O)c2ccccc2)c(C)c(C)n1Cc1ccccc1`, the GI50 with 786-0, in the experiment on CAKI-1, in the experiment with COLO 205, with EKVX, in the experiment on HCC 2998 and in the experiment on HL-60 was > 100 µM (inactive) in each case. Besides, the GI50 with K562, with MDA-MB-435, with MDA-N, in the experiment on MOLT-4, in the experiment with NCI-H226 and in the experiment with NCI-H23 was > 100 µM (inactive) in each case. Further, the GI50 is 44.9 µM (inactive) in the experiment on PC-3; > 100 µM (inactive) in the experiment with RXF 393; 83.8 µM (inactive) in the experiment with SK-MEL-5; > 100 µM (inactive) with SK-OV-3; > 100 µM (inactive) in the experiment on SW-620; > 100 µM (inactive) in the experiment with TK-10. The GI50 in the experiment with U-251 is > 100 µM (inactive).
In the case of `CNc1ccc([S+]([O-])Nc2ccc(OC)cc2)cc1` (configuration not stated), the GI50 was 74.8 µM (inactive) in the experiment on 786-0; 65.5 µM (inactive) in the experiment with CAKI-1; 29.2 µM (inactive) in the experiment on COLO 205; 70.1 µM (inactive) with EKVX; 50.2 µM (inactive) in the experiment with HCC 2998; 54.6 µM (inactive) in the experiment on HL-60. Besides, the GI50 is 21.3 µM (inactive) in the experiment on K562; 7.38 µM (inactive) with LOX IMVI; 14.2 µM (inactive) in the experiment with MDA-MB-435; > 100 µM (inactive) in the experiment with MDA-N; 51.8 µM (inactive) in the experiment with MOLT-4; > 100 µM (inactive) in the experiment on NCI-H226. In addition, the GI50 in the experiment on NCI-H23 is > 100 µM (inactive); in the experiment on PC-3 it was > 100 µM (inactive); in the experiment with SK-MEL-5, 19.3 µM (inactive); in the experiment with SK-OV-3, 49.2 µM (inactive); with SW-620, 31.6 µM (inactive); with TK-10, > 100 µM (inactive). Moreover, the GI50 in the experiment with U-251 was 43.4 µM (inactive).
Consider `C=C[C@]1(C)CC[C@]2(C)C(CC[C@@]3(C)C2C[C@H](O)[C@H](O)[C@@]3(C)O)C1` (some centres not stated), for which the GI50 in the experiment on 786-0, in the experiment with CAKI-1, in the experiment with COLO 205, in the experiment on EKVX, in the experiment with HCC 2998 and with HL-60 was > 100 µM (inactive) in each case. For the same compound, the GI50 in the experiment with K562, with LOX IMVI, in the experiment with MDA-MB-435, with MDA-N, with MOLT-4 and in the experiment on NCI-H226 was > 100 µM (inactive) each time. Further, the GI50 with NCI-H23, in the experiment with PC-3, with SK-MEL-5, in the experiment with SK-OV-3, with SW-620 and with TK-10 was > 100 µM (inactive) each time. Also, the GI50 in the experiment on U-251 is > 100 µM (inactive).
Regarding `CN(/N=C/c1ccnc2ccccc12)c1ccc(Cl)cc1[N+](=O)[O-]`, the GI50 in the experiment with 786-0 is 49.9 µM (inactive); in the experiment with CAKI-1, > 100 µM (inactive); in the experiment on COLO 205, > 100 µM (inactive); in the experiment on EKVX, 12.2 µM (inactive); with HCC 2998 it was > 100 µM (inactive); with HL-60, > 100 µM (inactive). In addition, the GI50 with K562 was > 100 µM (inactive); in the experiment on MDA-MB-435, > 100 µM (inactive); with MDA-N, > 100 µM (inactive); with MOLT-4, 45.3 µM (inactive); in the experiment on NCI-H226, > 100 µM (inactive); with NCI-H23, 8.57 µM (inactive). For the same compound, the GI50 was > 100 µM (inactive) in the experiment with PC-3; 37.3 µM (inactive) with RXF 393; 6.12 µM (inactive) with SK-MEL-5; > 100 µM (inactive) with SK-OV-3; > 100 µM (inactive) in the experiment on SW-620; 35.6 µM (inactive) in the experiment with TK-10. In addition, the GI50 with U-251 is > 100 µM (inactive).
As for `C/C(=N\NC(=S)Nc1ccc([N+](=O)[O-])cc1)c1nc2cccnc2[nH]1`, the GI50 is 0.748 µM (active) in the experiment on 786-0; 1 µM (active) in the experiment on CAKI-1; 2.44 µM (inactive) with COLO 205; 0.227 µM (active) with EKVX; 1.15 µM (inactive) in the experiment on HCC 2998; 0.652 µM (active) with HL-60. The GI50 with K562 is 1.55 µM (inactive); in the experiment on LOX IMVI, 0.442 µM (active); with MDA-MB-435, 1.34 µM (inactive); with MDA-N, 1.78 µM (inactive); in the experiment on MOLT-4, 0.377 µM (active); with NCI-H226 it was 0.504 µM (active). Further, the GI50 in the experiment on NCI-H23 was 0.713 µM (active); in the experiment on PC-3, 1.24 µM (inactive); in the experiment on SK-MEL-5 it was 0.991 µM (active); in the experiment with SK-OV-3 it was 1.16 µM (inactive); in the experiment with SW-620, 0.906 µM (active); in the experiment on TK-10 it was 0.327 µM (active). Further, in the experiment on U-251, the GI50 was 0.251 µM (active).
As for `CC(C)=C[C@@H]1O[C@H](O)[C@@H]([C@H]2CC[C@@]3(C)[C@@H]4CC[C@H]5C(C)(C)C(=O)CC[C@@]56C[C@@]46CC[C@]23C)[C@@H]1O`, the GI50 with 786-0 was 14.3 µM (inactive); in the experiment on CAKI-1 it was 17.3 µM (inactive); with COLO 205, 20.1 µM (inactive); with EKVX, 18.5 µM (inactive); with HCC 2998 it was 18.6 µM (inactive); with HL-60, 14.2 µM (inactive). The GI50 is 15.6 µM (inactive) with K562; 17.7 µM (inactive) with MDA-MB-435; 15.9 µM (inactive) in the experiment with MDA-N; 14.1 µM (inactive) in the experiment on MOLT-4; 11.7 µM (inactive) in the experiment on NCI-H226; 16.4 µM (inactive) in the experiment with NCI-H23. The GI50 with PC-3 is 13 µM (inactive); in the experiment with RXF 393 it was 12.7 µM (inactive); in the experiment with SK-MEL-5, 17.7 µM (inactive); with SK-OV-3, 16.5 µM (inactive); in the experiment with SW-620, 13.1 µM (inactive); in the experiment on TK-10, 16 µM (inactive). Moreover, the GI50 in the experiment on U-251 is 17 µM (inactive).
`NCCCCC(NC(=O)OCc1ccccc1)C(=O)NCC(N)=O` (configuration not stated) (Cbz-[ξK]-Gly-NH2): the GI50 with 786-0, in the experiment with CAKI-1, with COLO 205, in the experiment with EKVX, in the experiment on HCC 2998 and in the experiment with K562 was > 100 µM (inactive) throughout. Also, the GI50 in the experiment with LOX IMVI, in the experiment with MDA-MB-435, with MDA-N, in the experiment on MOLT-4, in the experiment with NCI-H226 and with NCI-H23 was > 100 µM (inactive) in each case. Also, the GI50 with PC-3, in the experiment with RXF 393, in the experiment on SK-MEL-5, in the experiment on SK-OV-3, with SW-620 and in the experiment with U-251 was > 100 µM (inactive) each time.
